The experiment concerns Mus musculus. In words: Hypoglycemic activity in KKAy mouse assessed as reduction of blood glucose level at 38 mg/kg/day, po relative to control. It is filed as functional. Further details: scale not given: the % may be the effect or the level left.

The values that follow come from ChEMBL document CHEMBL2346631, “Thiazolidine-2,4-diones: progress towards multifarious applications” (Bioorg Med Chem, 2013).

Consider `Cc1oc(-c2ccccc2)nc1CCOc1ccc(CC2C(=O)NOC2=O)cc1` (stereo unspecified) [REGLITAZAR], for which the Activity was 25%.
